Values of other authors as cited in PubChem BioAssay AID1259409 (Chemical Carcinogenesis Research Information System (CCRIS), 2018).

Tested on: rodent chemically induced tumor inhibition, incidence and multiplicity
Experiment: CCRIS tumor inhibitor studies
Settings: Route [Inhibitor]: ORAL, Species: RAT, Promoter: NONE USED

Structure (SMILES): CC1=C(/C=C/C(C)=C/C=C/C(C)=C/C(=O)NCCO)C(C)(C)CCC1
- tumour outcome (control, treated, inhibition, significance) (Carcinogen: 1,2-DIMETHYLHYDRAZINE, 540-73-8, Dose [Inhibitor]: 2 MMOL/KG DIET DAILY STARTING 12 D AFTER CARCINOGEN TREATMENT THROUGH ABOUT 8 MO AFTER CARCINOGEN DOSE (STUDY DURATION:, Strain/Sex: F344/MALE, Target Tissue: Type of Lesion: COLON: ADENOCARCINOMA, Dose [Carcinogen]: 150 MG/KG BW ONCE): 10/39 (26%), 5/30 (17%), 35%, not significant
- tumour outcome (control, treated, inhibition, significance) (Carcinogen: 1,2-DIMETHYLHYDRAZINE, 540-73-8, Dose [Inhibitor]: 2 MMOL/KG DIET DAILY STARTING 12 D AFTER CARCINOGEN TREATMENT THROUGH ABOUT 8 MO AFTER CARCINOGEN DOSE (STUDY DURATION:, Strain/Sex: F344/MALE, Target Tissue: Type of Lesion: COLON: ADENOMA, Dose [Carcinogen]: 150 MG/KG BW ONCE): 23/39 (59%), 11/30 (37%), 37%, not significant
- tumour outcome (control, treated, inhibition, significance) (Carcinogen: L-AZASERINE, 115-02-6, Dose [Inhibitor]: 1 MMOL/KG DIET DAILY FOR 358 D STARTING 1 WK AFTER COMPLETION OF CARCINOGEN TREATMENT (STUDY DURATION: 66 WK), Strain/Sex: WISTAR-LEWIS/FEMALE, Target Tissue: Type of Lesion: PANCREAS: ADENOMA, Dose [Carcinogen]: 10 MG/KG BW 1/WK FOR 15 WK): 50%, 25%, 50%, not significant
- tumour outcome (control, treated, inhibition, significance) (Carcinogen: L-AZASERINE, 115-02-6, Dose [Inhibitor]: 1 MMOL/KG DIET DAILY FOR 358 D STARTING 1 WK AFTER COMPLETION OF CARCINOGEN TREATMENT (STUDY DURATION: 66 WK), Strain/Sex: WISTAR-LEWIS/FEMALE, Target Tissue: Type of Lesion: PANCREAS: CARCINOMA IN SITU, Dose [Carcinogen]: 10 MG/KG BW 1/WK FOR 15 WK): 8%, 25%, -213%, not calculated
- tumour outcome (control, treated, inhibition, significance) (Carcinogen: L-AZASERINE, 115-02-6, Dose [Inhibitor]: 1 MMOL/KG DIET DAILY FOR 358 D STARTING 1 WK AFTER COMPLETION OF CARCINOGEN TREATMENT (STUDY DURATION: 66 WK), Strain/Sex: WISTAR-LEWIS/FEMALE, Target Tissue: Type of Lesion: PANCREAS: CARCINOMA, Dose [Carcinogen]: 10 MG/KG BW 1/WK FOR 15 WK): 13%, 0%, 100%, not significant
- tumour outcome (control, treated, inhibition, significance) (Carcinogen: L-AZASERINE, 115-02-6, Dose [Inhibitor]: 1 MMOL/KG DIET DAILY FOR 358 D STARTING 1 WK AFTER COMPLETION OF CARCINOGEN TREATMENT (STUDY DURATION: 66 WK), Strain/Sex: WISTAR-LEWIS/FEMALE, Target Tissue: Type of Lesion: PANCREAS: NEOPLASM, Dose [Carcinogen]: 10 MG/KG BW 1/WK FOR 15 WK): 71%, 50%, 30%, p 0.14
- tumour outcome (control, treated, inhibition, significance) (Carcinogen: L-AZASERINE, 115-02-6, Dose [Inhibitor]: 1 MMOL/KG DIET DAILY FOR 358 D STARTING 1 WK AFTER COMPLETION OF CARCINOGEN TREATMENT (STUDY DURATION: 66 WK), Strain/Sex: WISTAR-LEWIS/MALE, Target Tissue: Type of Lesion: PANCREAS: ADENOMA, Dose [Carcinogen]: 10 MG/KG BW 1/WK FOR 15 WK): 25%, 56%, -124%, not calculated
- tumour outcome (control, treated, inhibition, significance) (Carcinogen: L-AZASERINE, 115-02-6, Dose [Inhibitor]: 1 MMOL/KG DIET DAILY FOR 358 D STARTING 1 WK AFTER COMPLETION OF CARCINOGEN TREATMENT (STUDY DURATION: 66 WK), Strain/Sex: WISTAR-LEWIS/MALE, Target Tissue: Type of Lesion: PANCREAS: CARCINOMA IN SITU, Dose [Carcinogen]: 10 MG/KG BW 1/WK FOR 15 WK): 29%, 28%, 3%, not significant
- tumour outcome (control, treated, inhibition, significance) (Carcinogen: L-AZASERINE, 115-02-6, Dose [Inhibitor]: 1 MMOL/KG DIET DAILY FOR 358 D STARTING 1 WK AFTER COMPLETION OF CARCINOGEN TREATMENT (STUDY DURATION: 66 WK), Strain/Sex: WISTAR-LEWIS/MALE, Target Tissue: Type of Lesion: PANCREAS: CARCINOMA, Dose [Carcinogen]: 10 MG/KG BW 1/WK FOR 15 WK): 46%, 8%, 83%, p<0.05
- tumour outcome (control, treated, inhibition, significance) (Carcinogen: L-AZASERINE, 115-02-6, Dose [Inhibitor]: 1 MMOL/KG DIET DAILY FOR 358 D STARTING 1 WK AFTER COMPLETION OF CARCINOGEN TREATMENT (STUDY DURATION: 66 WK), Strain/Sex: WISTAR-LEWIS/MALE, Target Tissue: Type of Lesion: PANCREAS: NEOPLASM, Dose [Carcinogen]: 10 MG/KG BW 1/WK FOR 15 WK): 100%, 92%, 8%, not significant
- tumour outcome (control, treated, inhibition, significance) (Carcinogen: L-AZASERINE, 115-02-6, Dose [Inhibitor]: 2.0 MMOL/KG DIET DAILY FOR 336 D OUT OF 358 D STARTING 1 WK AFTER COMPLETION OF CARCINOGEN TREATMENT (STUDY DURATION: 66, Strain/Sex: WISTAR-LEWIS/FEMALE, Target Tissue: Type of Lesion: PANCREAS: NEOPLASM (ADENOMA, CARCINOMA IN SITU, CARCINOMA), Dose [Carcinogen]: 10 MG/KG BW 1/WK FOR 15 WK STARTING 15 WK PRIOR TO AGENT TREATMENT): ?/24 (71%), ?/24 (25%), 65%, p<0.05
